Test results as given in ChEMBL document CHEMBL1201862, “PubChem BioAssay data set” (2004).
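Cultured in 96-well plates, cells were exposed to test compound for 48 hours across five concentrations. At the GI50, growth is halved.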 Calls of active or inactive are those of the source. Cut-off read from the data, not from the text of the source: active = GI50 up to about 1.1 µM and inactive = higher.

Assays:
Assay in all cases: growth of human tumour cells (NCI), 48 h
CCRF-CEM = test system: CCRF-CEM
COLO 205 = test system: COLO 205
HCC 2998 = test system: HCC 2998
IGROV-1 = test system: IGROV-1
MDA-N = test system: MDA-N
Malme-3M = test system: Malme-3M
NCI-H226 = test system: NCI-H226
NCI-H23 = test system: NCI-H23
NCI-H460 = test system: NCI-H460
OVCAR-5 = test system: OVCAR-5
PC-3 = test system: PC-3
RXF 393 = test system: RXF 393
SF-268 = test system: SF-268
SK-MEL-2 = test system: SK-MEL-2
SN12C = test system: SN12C
SNB-75 = test system: SNB-75
TK-10 = test system: TK-10
CAKI-1 = test system: CAKI-1
UO-31 = test system: UO-31
SF-539 = test system: SF-539

Measured: GI50

Cc1cc(C)c2c(-c3ccccc3)cc(=O)[nH]c2c1
inactive: CCRF-CEM > 100 µM | COLO 205 > 100 µM | HCC 2998 > 100 µM | IGROV-1 > 100 µM | MDA-N > 100 µM | Malme-3M > 100 µM | NCI-H226 > 100 µM | NCI-H23 > 100 µM | NCI-H460 > 100 µM | OVCAR-5 > 100 µM | PC-3 > 100 µM | RXF 393 > 100 µM | SF-268 > 100 µM | SK-MEL-2 > 100 µM | SN12C > 100 µM | SNB-75 > 100 µM | TK-10 > 100 µM

O=C1OC(c2ccccc2)=N/C1=C\c1ccc(Cl)cc1
inactive: CAKI-1 > 100 µM | CCRF-CEM 61.5 µM | COLO 205 > 100 µM | HCC 2998 > 100 µM | IGROV-1 > 100 µM | MDA-N > 100 µM | NCI-H226 > 100 µM | NCI-H23 > 100 µM | NCI-H460 > 100 µM | OVCAR-5 > 100 µM | PC-3 > 100 µM | RXF 393 > 100 µM | SF-268 > 100 µM | SK-MEL-2 > 100 µM | SN12C > 100 µM | SNB-75 > 100 µM | TK-10 > 100 µM | UO-31 > 100 µM

c1cnn(C23C4C5C6C4C2C6C53)c1 (centres undefined)
inactive: CCRF-CEM > 100 µM | COLO 205 > 100 µM | HCC 2998 > 100 µM | IGROV-1 > 100 µM | MDA-N > 100 µM | NCI-H226 60.4 µM | NCI-H23 > 100 µM | NCI-H460 > 100 µM | OVCAR-5 > 100 µM | PC-3 > 100 µM | SF-268 > 100 µM | SF-539 > 100 µM | SK-MEL-2 > 100 µM | SN12C > 100 µM | SNB-75 > 100 µM | TK-10 > 100 µM

O=C1C(c2c(O)[nH]c3ccc(S(=O)(=O)O)cc23)=Nc2ccccc21
inactive: CAKI-1 > 100 µM | CCRF-CEM > 100 µM | COLO 205 > 100 µM | HCC 2998 > 100 µM | IGROV-1 > 100 µM | MDA-N > 100 µM | Malme-3M > 100 µM | NCI-H226 > 100 µM | NCI-H23 > 100 µM | NCI-H460 > 100 µM | OVCAR-5 > 100 µM | PC-3 > 100 µM | RXF 393 > 100 µM | SF-268 > 100 µM | SK-MEL-2 > 100 µM | SN12C > 100 µM | SNB-75 > 100 µM | TK-10 > 100 µM | UO-31 > 100 µM

COc1ccc(C(c2ccc3c(c2)OCO3)N2C(=O)CCC2C(=O)O)cc1 (centres undefined)
inactive: CAKI-1 > 100 µM | CCRF-CEM > 100 µM | COLO 205 > 100 µM | HCC 2998 > 100 µM | IGROV-1 > 100 µM | MDA-N > 100 µM | Malme-3M > 100 µM | NCI-H226 > 100 µM | NCI-H23 > 100 µM | NCI-H460 > 100 µM | OVCAR-5 > 100 µM | PC-3 > 100 µM | SF-268 > 100 µM | SF-539 > 100 µM | SK-MEL-2 > 100 µM | SN12C > 100 µM | SNB-75 > 100 µM | TK-10 > 100 µM | UO-31 > 100 µM

c1ccc(COc2ncccc2C2SCCCS2)cc1
inactive: CAKI-1 > 100 µM | CCRF-CEM > 100 µM | COLO 205 > 100 µM | HCC 2998 > 100 µM | IGROV-1 > 100 µM | MDA-N > 100 µM | Malme-3M > 100 µM | NCI-H226 > 100 µM | NCI-H23 > 100 µM | OVCAR-5 > 100 µM | PC-3 > 100 µM | RXF 393 66.8 µM | SF-268 > 100 µM | SF-539 67.3 µM | SK-MEL-2 > 100 µM | SN12C > 100 µM | TK-10 > 100 µM | UO-31 > 100 µM

COC(=O)/C=C(/C=C1/C(C#N)=C(N)N(c2ccc(Cl)cc2)C1(C)/C(=C/C(=O)OC)C(=O)OC)C(=O)OC (centres undefined)
inactive: CAKI-1 > 100 µM | CCRF-CEM 27 µM | COLO 205 25.1 µM | HCC 2998 82.6 µM | IGROV-1 27.6 µM | MDA-N 45.1 µM | Malme-3M 51.2 µM | NCI-H23 42.3 µM | NCI-H460 40.6 µM | OVCAR-5 > 100 µM | PC-3 34.6 µM | SF-268 > 100 µM | SF-539 > 100 µM | SK-MEL-2 > 100 µM | SN12C 35.8 µM | SNB-75 20.5 µM | TK-10 60.1 µM | UO-31 64.1 µM

CCOP(=O)(Nc1ccccc1P(=O)(OCC)OCC)OCC
inactive: CAKI-1 > 100 µM | COLO 205 > 100 µM | HCC 2998 > 100 µM | IGROV-1 > 100 µM | MDA-N > 100 µM | Malme-3M > 100 µM | NCI-H23 > 100 µM | NCI-H460 > 100 µM | OVCAR-5 > 100 µM | PC-3 > 100 µM | RXF 393 > 100 µM | SF-268 > 100 µM | SK-MEL-2 > 100 µM | SNB-75 > 100 µM | TK-10 > 100 µM | UO-31 > 100 µM

COc1ccccc1C1=C2C(=O)N(C)C(c3ccccc3OC)=C2C(=O)N1C
inactive: CAKI-1 > 100 µM | CCRF-CEM > 100 µM | COLO 205 > 100 µM | HCC 2998 > 100 µM | IGROV-1 > 100 µM | MDA-N > 100 µM | Malme-3M 45.4 µM | NCI-H226 84.3 µM | NCI-H23 59 µM | NCI-H460 84.1 µM | OVCAR-5 > 100 µM | PC-3 > 100 µM | SF-268 36.1 µM | SF-539 27.6 µM | SN12C > 100 µM | TK-10 70.6 µM | UO-31 50.8 µM

NNC(=O)C(O)C(O)C(O)CO (centres undefined)
inactive: CAKI-1 > 100 µM | CCRF-CEM > 100 µM | COLO 205 > 100 µM | HCC 2998 > 100 µM | IGROV-1 > 100 µM | MDA-N > 100 µM | Malme-3M > 100 µM | NCI-H226 > 100 µM | NCI-H23 > 100 µM | NCI-H460 > 100 µM | OVCAR-5 > 100 µM | PC-3 > 100 µM | RXF 393 > 100 µM | SF-268 > 100 µM | SK-MEL-2 > 100 µM | SN12C > 100 µM | SNB-75 > 100 µM | TK-10 > 100 µM | UO-31 > 100 µM

Cc1nc(C)c(C(=O)NNC(N)=S)cc1C(=O)NNC(N)=S
inactive: CAKI-1 > 100 µM | COLO 205 > 100 µM | HCC 2998 > 100 µM | IGROV-1 > 100 µM | MDA-N > 100 µM | NCI-H226 > 100 µM | NCI-H23 > 100 µM | NCI-H460 > 100 µM | OVCAR-5 > 100 µM | PC-3 > 100 µM | RXF 393 > 100 µM | SF-268 > 100 µM | SF-539 > 100 µM | SK-MEL-2 > 100 µM | SN12C > 100 µM | TK-10 > 100 µM | UO-31 > 100 µM
